# ChEMBL document CHEMBL1681651, “A broad spectrum anticancer nucleoside with selective toxicity against human colon cells in vitro” (2011)
# Key:
# Format in all cases: functional
# [1] = tested on: HT-29; assay: Growth inhibition of human HT-29 cells assessed as cell growth at 10 uM after 48 hrs by SRB assay; settings: HT-29, 48 h, read-out: Activity
# [2] = tested on: SW-620; assay: Growth inhibition of human SW620 cells assessed as cell growth at 10 uM after 48 hrs by SRB assay; settings: SW-620, 48 h, read-out: Activity
# [3] = tested on: NCI-H23; assay: Growth inhibition of human NCI-H23 cells assessed as cell growth at 10 uM after 48 hrs by SRB assay; settings: NCI-H23, 48 h, read-out: Activity
# [4] = tested on: KM12; assay: Growth inhibition of human KM12 cells assessed as cell growth at 10 uM after 48 hrs by SRB assay; settings: KM12, 48 h, read-out: Activity
# [5] = tested on: SK-MEL-2; assay: Growth inhibition of human SK-MEL-2 cells assessed as cell growth at 10 uM after 48 hrs by SRB assay; settings: SK-MEL-2, 48 h, read-out: Activity
# [6] = tested on: OVCAR-4; assay: Growth inhibition of human OVCAR4 cells assessed as cell growth at 10 uM after 48 hrs by SRB assay; settings: OVCAR-4, 48 h, read-out: Activity
# [7] = tested on: U-251; assay: Growth inhibition of human U251 cells assessed as cell growth at 1 mM after 48 hrs by SRB assay; settings: U-251, 48 h, read-out: Activity
# [8] = tested on: KM12; assay: Growth inhibition of human KM12 cells after 48 hrs by […] growth inhibition assay; settings: KM12, 48 h
# [9] = tested on: MDA-MB-231; assay: Growth inhibition of human MDA-MB-231 cells assessed as cell growth at 1 uM after 48 hrs by SRB assay; settings: MDA-MB-231, 48 h, read-out: Activity
# [10] = tested on: A549; assay: Growth inhibition of human A549 cells assessed as cell growth at 1 uM after 48 hrs by SRB assay; settings: A549, 48 h, read-out: Activity
# [11] = tested on: BT-549; assay: Growth inhibition of human BT549 cells assessed as cell growth at 10 uM after 48 hrs by SRB assay; settings: BT-549, 48 h, read-out: Activity
# [12] = tested on: Malme-3M; assay: Growth inhibition of human MALME-3M cells assessed as cell growth at 100 uM after 48 hrs by SRB assay; settings: read-out: Activity
# [13] = tested on: 786-0; assay: Growth inhibition of human 786-0 cells assessed as cell growth at 1 uM after 48 hrs by SRB assay; settings: 786-0, 48 h, read-out: Activity
# [14] = tested on: UACC-257; assay: Growth inhibition of human UACC257 cells after 48 hrs by […] growth inhibition assay; settings: UACC-257, 48 h
# [15] = tested on: BT-549; assay: Growth inhibition of human BT549 cells assessed as cell growth at 1 uM after 48 hrs by SRB assay; settings: BT-549, 48 h, read-out: Activity
# [16] = tested on: SF-295; assay: Growth inhibition of human SF295 cells assessed as cell growth at 0.1 uM after 48 hrs by SRB assay; settings: SF-295, 48 h, read-out: Activity
# [17] = tested on: A498; assay: Growth inhibition of human A498 cells after 48 hrs by […] growth inhibition assay; settings: A498, 48 h
# [18] = tested on: HCT-116; assay: Growth inhibition of human HCT116 cells after 48 hrs by […] growth inhibition assay; settings: HCT-116, 48 h
# [19] = tested on: HCC 2998; assay: Growth inhibition of human HCC2998 cells assessed as cell growth at 100 uM after 48 hrs by SRB assay; settings: HCC 2998, 48 h, read-out: Activity
# [20] = tested on: LOX IMVI; assay: Growth inhibition of human LOXIMVI cells assessed as cell growth at 1 mM after 48 hrs by SRB assay; settings: read-out: Activity
# [21] = tested on: ACHN; assay: Growth inhibition of human ACHN cells assessed as cell growth at 1 uM after 48 hrs by SRB assay; settings: read-out: Activity
# [22] = tested on: TK-10; assay: Growth inhibition of human TK10 cells assessed as cell growth at 100 uM after 48 hrs by SRB assay; settings: TK-10, 48 h, read-out: Activity
# [23] = tested on: 786-0; assay: Growth inhibition of human 786-0 cells assessed as cell growth at 100 uM after 48 hrs by SRB assay; settings: 786-0, 48 h, read-out: Activity
# [24] = tested on: IGROV-1; assay: Growth inhibition of human IGROV1 cells assessed as cell growth at 100 uM after 48 hrs by SRB assay; settings: IGROV-1, 48 h, read-out: Activity
# [25] = tested on: TK-10; assay: Growth inhibition of human TK10 cells assessed as cell growth at 0.1 uM after 48 hrs by SRB assay; settings: TK-10, 48 h, read-out: Activity
# [26] = tested on: COLO 205; assay: Growth inhibition of human COLO205 cells assessed as cell growth at 1 uM after 48 hrs by SRB assay; settings: COLO 205, 48 h, read-out: Activity
# [27] = tested on: HCT-15; assay: Growth inhibition of human HCT15 cells after 48 hrs by […] growth inhibition assay; settings: HCT-15, 48 h
# [28] = tested on: NCI-H522; assay: Growth inhibition of human NCI-H522 cells assessed as cell growth at 1 uM after 48 hrs by SRB assay; settings: NCI-H522, 48 h, read-out: Activity
# [29] = tested on: T47D; assay: Growth inhibition of human T47D cells after 48 hrs by […] growth inhibition assay
# [30] = tested on: SNB-19; assay: Growth inhibition of human SNB19 cells after 48 hrs by […] growth inhibition assay; settings: SNB-19, 48 h
# [31] = tested on: NCI-H226; assay: Growth inhibition of human NCI-H226 cells assessed as cell growth at 1 mM after 48 hrs by SRB assay; settings: NCI-H226, 48 h, read-out: Activity
# [32] = tested on: NCI-H522; assay: Growth inhibition of human NCI-H522 cells assessed as cell growth at 0.1 uM after 48 hrs by SRB assay; settings: NCI-H522, 48 h, read-out: Activity
# [33] = read-out: LC50 (the source's name)
# [34] = read-out: pLC50 (the source's name) (converted)
structure (smiles),measurement,setting,value
CNC(=O)OC[C@H]1O[C@@H](n2cnc3c(NC(=O)Nc4ccccc4)ncnc32)[C@H](O[Si](C)(C)C(C)(C)C)[C@@H]1O[Si](C)(C)C(C)(C)C,growth at 10 µM,[1],81.3%
same,growth at 10 µM,[2],98%
same,growth at 10 µM,[3],98%
same,growth at 10 µM,[4],110%
same,growth at 10 µM,[5],82.9%
same,growth at 10 µM,[6],85.8%
CNC(=O)NC[C@H]1O[C@@H](n2cnc3c(NC(=O)Nc4ccccc4)ncnc32)[C@H](O[Si](C)(C)C(C)(C)C)[C@@H]1O[Si](C)(C)C(C)(C)C,growth at 1000 µM,[7],-46%
same,GI50,[8]; read-out: GI50,2.13 µM
same,CC50,[8]; [33],8.05 µM
same,TGI,[8]; read-out: TGI,4.14 µM
same,GI50,[8]; read-out: pGI50 (converted),2.14 µM
same,CC50,[8]; [34],8.13 µM
same,TGI,[8]; read-out: pTGI (converted),4.17 µM
same,growth at 1 µM,[9],109%
same,growth at 1 µM,[10],98%
same,growth at 10 µM,[1],107%
same,growth at 10 µM,[11],103%
same,growth at 100 µM,[12],-1%
same,growth at 1 µM,[13],113%
same,GI50,[14]; read-out: GI50,3.78 µM
same,CC50,[14]; [33],> 100 µM
same,TGI,[14]; read-out: TGI,20.2 µM
same,GI50,[14]; read-out: pGI50 (converted),3.8 µM
same,CC50,[14]; [34],> 100 µM
same,TGI,[14]; read-out: pTGI (converted),20 µM
same,growth at 1 µM,[15],112%
same,growth at 0.1 µM,[16],103%
same,GI50,[17]; read-out: GI50,2.03 µM
same,CC50,[17]; [33],19.5 µM
same,TGI,[17]; read-out: TGI,4.96 µM
same,GI50,[17]; read-out: pGI50 (converted),2.04 µM
same,CC50,[17]; [34],19.5 µM
same,TGI,[17]; read-out: pTGI (converted),5.01 µM
same,GI50,[18]; read-out: GI50,2.11 µM
same,CC50,[18]; [33],8.8 µM
same,TGI,[18]; read-out: TGI,4.31 µM
same,GI50,[18]; read-out: pGI50 (converted),2.09 µM
same,CC50,[18]; [34],8.71 µM
same,TGI,[18]; read-out: pTGI (converted),4.27 µM
same,growth at 100 µM,[19],-79%
same,growth at 1000 µM,[20],-77%
same,growth at 10 µM,[3],105%
same,growth at 1 µM,[21],108%
same,growth at 100 µM,[22],14%
same,growth at 100 µM,[23],-83%
same,growth at 100 µM,[24],-12%
same,growth at 10 µM,[4],107%
same,growth at 0.1 µM,[25],110%
same,growth at 10 µM,[5],105%
same,growth at 1 µM,[26],111%
same,GI50,[27]; read-out: GI50,3.62 µM
same,CC50,[27]; [33],> 100 µM
same,TGI,[27]; read-out: TGI,> 100 µM
same,GI50,[27]; read-out: pGI50 (converted),3.63 µM
same,CC50,[27]; [34],> 100 µM
same,TGI,[27]; read-out: pTGI,> 100 µM
same,growth at 1 µM,[28],90%
same,growth at 10 µM,[6],100%
same,GI50,[29]; read-out: GI50,2.87 µM
same,CC50,[29]; [33],> 100 µM
same,TGI,[29]; read-out: TGI,10.3 µM
same,GI50,[29]; read-out: pGI50 (converted),2.88 µM
same,CC50,[29]; [34],> 100 µM
same,TGI,[29]; read-out: pTGI (converted),10.2 µM
same,GI50,[30]; read-out: GI50,4.57 µM
same,CC50,[30]; [33],> 100 µM
same,TGI,[30]; read-out: TGI,> 100 µM
same,GI50,[30]; read-out: pGI50 (converted),4.57 µM
same,CC50,[30]; [34],> 100 µM
same,TGI,[30]; read-out: pTGI,> 100 µM
same,growth at 1000 µM,[31],-48%
same,growth at 0.1 µM,[32],92%
